From patent publication US20160194336A1, “P38 MAPK INHIBITORS FOR THE TREATMENT OF INFLAMMATORY DISEASES” (ALLINKY BIOPHARMA, priority 2012, published 2016)

How the values were obtained:
[1] = target: T1, p38alpha wt (Homo sapiens, UniProt Q16539); assay: site-mutated p38 phosphorylation cascade assay, wild type; format: biochemical; details: compound 10 uM
T1 construct: made in house; host or cells: E. coli XL10-Gold
Description: (§1) After preincubation, MKK6 (ProQinase), ATF2 (ProQinase) and ATP were added to a final concentration of 10 nM, 5 μM and 10 μM respectively, then incubated 40 minutes at 30° C. and analyzed with ADP-Glo™.
(§2) Replacement of specific residues arginine 186 and 189 of p38α (pGEX4T-1-p38α) for alanine was performed with the QuikChange Lightining Site-Directed Mutagenesis Kit (Agilent Technologies). The following oligonucleotides were used for the arginine 186 to alanine substitution: forward primer: 5′-SEQ ID NO 7-3′; reverse primer: 5′-SEQ ID NO 8-3′. Oligonucleotides used for the arginine 189 to alanine substitution were: forward primer: 5′-SEQ ID NO 9-3′; reverse primer: 5′-SEQ ID NO 10-3′. Mutations were validated by sequencing (Genomic Unit, Parque Cientifico de Madrid). E. coli XL10-Gold ultracompentent cells (Agilent Technologies) were transformed with the vector plasmids containing p38αWT and mutants. For the expression of recombinant p38α transformed cells were cultured overnight at 37° C. in 50 ml of fresh LB medium containing ampicillin (100 μg/ml). After that, culture was diluted in fresh LB to A595=0.4 and grown for approximately 1 h at 37° C. until exponential growth and then induced with Isopropyl-β-D-thiogalactopyranoside (IPTG) 1 mM for 5 h. The cells were collected by centrifugation and cell pellet were resuspended in 50 ml of cold lysis buffer: PBS pH 7.4, EDTA 10 mM, PMSF 1 mM, Benzamidine 0.2 mM, DTT 5 mM, Triton X-100 1% and Lysozyme 1 mg/ml. The soluble and insoluble fractions were separated by centrifugation (16,000 g for 20 min). The soluble fraction was incubated for 2 hours with 1 ml of pre-equilibrated Glutathione Sepharose 4B (GE Healthcare) and the resin was extensively washed in a column with 200 ml of binding buffer: PBS, PMSF 1 mM and benzamidine 0.2 mM. Proteins were eluted with 1 ml of Tris-HCl 50 mM pH 8.0 and reduced glutathione 20 mM. 20% glycerol was added to purified proteins and stored at −80° C. Protein concentration and purity was assessed by SDS-PAGE. Kinase activity was measured by ADP-glo kit using MKK6 as activator and ATF2 as substrate. Activity recorded for p38αR186A and p38αR189A were 15.5% and 4.8%, respectively (n=4) related to wild type protein.

[2] = test system: THP-1 cells; assay: survival of monocytes with LPS; format: cell-based, human
[3] = target: T2, p38αR189A (Homo sapiens, UniProt Q16539, R189A); assay: site-mutated p38 phosphorylation cascade assay, R189A mutant; format: biochemical; details: compound 10 uM
T2 construct: made in house; host or cells: E. coli XL10-Gold
Description: as §1, §2

[4] = test system: TNF-α secretion, THP-1 cells; assay: Inhibition of TNF-α secretion by LPS-stimulated THP-1; format: cell-based; details: Homo sapiens, THP-1, 3 h, monocytes with LPS, read-out: TNF abetment
Description: Inhibition of TNF-α Secretion by a Human Monocytic Cell Line, THP-1.
THP-1 cells, growing in log phase, were collected by centrifugation and resuspended in RPMI 1640 (Sigma Aldrich), to a final cell concentration of 2×10^6 cells/ml. Cells were plated into 24-well plates (BD Biosciences). Dilutions of compounds in dimethyl sulfoxide (DMSO) were added to the culture to a final concentration M. The final DMSO concentration was 0.5%. The cells […] suspensions were preincubated with compounds for 1 h at 37° C. in a 5% C02 humidified atmosphere before the addition of LPS (Sigma Aldrich, L2654) to a final concentration of 2 μg/ml. After that, cells were incubated for 3 h followed by centrifugation to pellet cells. Cell supernatants were stored at 4° C. until Human analysis for TNF-α content. TNF-α levels were determined by ELISA (TNF Biotrak, GE Healthcare) following the manufacturer's directions. The percentage inhibition was calculated for each compound concentration tested, and the IC50 was calculated for each compound.

[5] = target: T3, p38αR186A (Homo sapiens, UniProt Q16539, R186A); assay: site-mutated p38 phosphorylation cascade assay, R186A mutant; format: biochemical; details: compound 10 uM
T3 construct: made in house; host or cells: E. coli XL10-Gold
Description: as §1, §2

T2 sequence (Q16539 whole entry R189A): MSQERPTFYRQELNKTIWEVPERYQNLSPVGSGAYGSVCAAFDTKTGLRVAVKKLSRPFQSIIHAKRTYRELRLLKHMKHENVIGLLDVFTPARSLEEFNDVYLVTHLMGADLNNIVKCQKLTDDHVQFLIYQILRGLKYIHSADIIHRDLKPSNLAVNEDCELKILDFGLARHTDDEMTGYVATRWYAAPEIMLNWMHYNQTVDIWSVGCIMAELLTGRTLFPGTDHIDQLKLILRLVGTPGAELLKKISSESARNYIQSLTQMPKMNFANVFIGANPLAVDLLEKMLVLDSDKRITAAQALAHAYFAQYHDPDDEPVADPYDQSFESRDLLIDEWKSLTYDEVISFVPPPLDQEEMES
T3 sequence (Q16539 whole entry R186A): as the sequence (Q16539 whole entry R189A) above, with R186A, A189R counted along it
T1 sequence (Q16539 whole entry): as the sequence (Q16539 whole entry R189A) above, with A189R counted along it

SMILES	inhibition at 10 µM [1]	inhibition at 10 µM [3]	inhibition at 10 µM [5]	Cell survival ([2]; 10 uM)	inhibition at 10 µM [4]	Cell survival ([2]; 1 uM)	inhibition at 1 µM [4]	Cell survival ([2]; 0.1 uM)	inhibition at 0.1 µM [4]
CCOC(=O)c1ccc(Nc2nc3nonc3nc2Nc2ccc(C(=O)c3ccccc3)cc2)cc1 [Compound 26]	73%	28%	40%	83%	8%	87%	30%	86%	27%
CC(C)NC(=O)c1ccc(Nc2nc3nonc3nc2N2CCC(Cc3ccccc3)CC2)cc1 [Compound 18]	62%	33%	37%	79%	56%	83%	34%	90%	1%
CCOC(=O)c1ccc(Nc2nc3nonc3nc2N2CCC(Oc3ccc(Cl)cc3)CC2)cc1 [Compound 25]	59%	30%	14%	42%	102%	61%	61%	88%	12%
CCOC(=O)c1ccc(Nc2nc3nonc3nc2N2CCC(Sc3ccc(C)cc3)CC2)cc1 [Compound 15]	61%	20%	28%	97%	32%	92%	17%	–	–
CCOC(=O)c1ccc(Nc2nc3nonc3nc2Nc2ccc(Oc3ccncc3)cc2)cc1 [Compound 27]	88%	47%	72%	72%	76%	99%	58%	103%	28%
CCOC(=O)c1ccc(Nc2nc3nonc3nc2N2CCC(C(=O)c3ccccc3)CC2)cc1 [Compound 17]	56%	13%	19%	97%	69%	98%	34%	99%	21%
CC(C)NC(=O)c1cccc(Nc2nc3nonc3nc2N2CCC(Cc3ccccc3)CC2)c1 [Compound 20]	71%	22%	38%	81%	36%	96%	55%	101%	-9%
CCCNC(=O)c1ccc(Nc2nc3nonc3nc2N2CCC(Cc3ccccc3)CC2)cc1 [Compound 19]	71%	32%	35%	93%	-10%	97%	-21%	103%	-47%
Cc1cc(C(=O)NCC(C)C)ccc1Nc1nc2nonc2nc1N1CCC(Cc2ccccc2)CC1 [Compound 21]	83%	38%	48%	94%	20%	95%	18%	98%	-15%
O=C(O)c1ccc(Nc2nc3nonc3nc2N2CCC(Cc3ccccc3)CC2)cc1 [Compound 29]	23%	6%	21%	92%	44%	103%	11%	103%	7%
CCCNC(=O)c1ccc(Nc2nc3nonc3nc2N2CCC(Sc3ccc(C)cc3)CC2)cc1 [Compound 23]	90%	26%	48%	88%	60%	95%	41%	96%	26%
O=C([O][Na+])c1ccc(Nc2nc3nonc3nc2N2CCC(Cc3ccccc3)CC2)cc1 [Compound 30]	25%	9%	19%	93%	41%	97%	16%	99%	12%
CCOC(=O)c1ccc(Nc2nc3nonc3nc2N2CCC(Oc3ccccc3OC)CC2)cc1 [Compound 16]	32%	17%	15%	93%	35%	95%	26%	88%	16%

More lines, main results first:

inhibition at 10 µM [1]	inhibition at 10 µM [3]	inhibition at 10 µM [5]	SMILES	Cell survival ([2]; 10 uM)	inhibition at 10 µM [4]	Cell survival ([2]; 1 uM)	inhibition at 1 µM [4]	Cell survival ([2]; 0.1 uM)	inhibition at 0.1 µM [4]
31%	17%	18%	CCOC(=O)c1ccc(Nc2nc3nonc3nc2N2CCN(Cc3ccccc3C)CC2)cc1 [Compound 14]	81%	17%	–	–	–	–
34%	14%	22%	CCOC(=O)c1ccc(Nc2nc3nonc3nc2N2CCN(Cc3cccc(Cl)c3)CC2)cc1 [Compound 13]	86%	32%	93%	13%	–	–
86%	27%	41%	CCOC(=O)c1ccc(Nc2nc3nonc3nc2N2CCC(Sc3ccc(Cl)cc3)CC2)cc1 [Compound 28]	88%	36%	87%	24%	88%	17%
31%	6%	16%	Cc1ccc(SC2CCN(c3nc4nonc4nc3-c3cccc(C(=O)OC(C)C)c3)CC2)cc1 [Compound 22]	99%	10%	94%	17%	97%	-2%
81%	14%	39%	CCOC(=O)c1ccc(Nc2nc3nonc3nc2NN=Cc2cccc3ccccc23)cc1 [Compound 12]	99%	-16%	97%	-6%	–	–
47%	19%	23%	CCOC(=O)c1ccc(Nc2nc3nonc3nc2N2CCC(Oc3ccncc3)CC2)cc1 [Compound 33]	97%	62%	99%	46%	100%	21%
66%	39%	43%	CCOC(=O)c1ccc(NNc2nc3nonc3nc2N2CCC(Cc3ccccc3)CC2)cc1 [Compound 24]	105%	67%	98%	12%	104%	-23%
